Laboratory results reported in PubChem BioAssay AID248 (DTP/NCI, 2004).
Values joined by “and” are separate entries in the source; they are usually repeats but may differ in a detail not shown here. Equal entries are not always repeated. Inconclusive results and toxic doses are left out. Rule as the data show it: active = T/C of 150% or more; inactive = T/C below 125%.

Tested on: L1210 leukemia ip in BDF1 mice, survival T/C
Test: NCI In Vivo Anticancer Drug Screen. Data for tumor model L1210 Leukemia (intraperitoneal) in B6D2F1 (BDF1) mice
Details: endpoint: mean survival time, higher = longer survival
Outline: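 Read-out is survival time, reported as the treated-group measurement over the vehicle-control measurement.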

[1] = dose: 50.0 mg/kg/injection, schedule: Q01DX001 (ip), vehicle: saline
[2] = dose: 100.0 mg/kg/injection, schedule: Q01DX001 (ip), vehicle: saline
[3] = dose: 200.0 mg/kg/injection, schedule: Q01DX001 (ip), vehicle: saline
[4] = dose: 400.0 mg/kg/injection, schedule: Q01DX001 (ip), vehicle: saline
[5] = dose: 100.0 mg/kg/injection, schedule: Q04DX003 (ip), vehicle: Klucel (hydroxypropylcellulose) (HPC)
[6] = dose: 200.0 mg/kg/injection, schedule: Q04DX003 (ip), vehicle: Klucel (hydroxypropylcellulose) (HPC)
[7] = dose: 400.0 mg/kg/injection, schedule: Q04DX003 (ip), vehicle: Klucel (hydroxypropylcellulose) (HPC)
[8] = dose: 100.0 mg/kg/injection, schedule: Q04DX002 (ip), vehicle: Klucel (hydroxypropylcellulose) (HPC)
[9] = dose: 200.0 mg/kg/injection, schedule: Q04DX002 (ip), vehicle: Klucel (hydroxypropylcellulose) (HPC)
[10] = dose: 400.0 mg/kg/injection, schedule: Q04DX002 (ip), vehicle: Klucel (hydroxypropylcellulose) (HPC)

Measured: T/C

CCCCOC(=N)Cc1cc(OC)c(OC)c(OC)c1
inactive: dose: 75.0 mg/kg/injection, schedule: Q04DX003 (ip), vehicle: saline with Tween-80 98 % of control | dose: 150.0 mg/kg/injection, schedule: Q04DX003 (ip), vehicle: saline with Tween-80 92 % of control | dose: 300.0 mg/kg/injection, schedule: Q04DX003 (ip), vehicle: saline with Tween-80 98 % of control

NCCNCCNCCN
inactive: [1] 95 % of control | [2] 95 % of control | dose: 100.0 mg/kg/injection, schedule: Q01DX009 (ip), vehicle: saline 93 % of control | dose: 100.0 mg/kg/injection, schedule: Q04DX003 (ip), vehicle: saline 102 % of control | [3] 98 % of control | dose: 200.0 mg/kg/injection, schedule: Q01DX009 (ip), vehicle: saline 93 % of control | dose: 200.0 mg/kg/injection, schedule: Q04DX003 (ip), vehicle: saline 105 % of control | [4] 101 % of control | dose: 400.0 mg/kg/injection, schedule: Q01DX009 (ip), vehicle: saline 109 % of control | dose: 400.0 mg/kg/injection, schedule: Q04DX003 (ip), vehicle: saline 94 % of control

O=c1[nH]n(-c2ccccc2)c(=O)c2ccccc12
inactive: dose: 100.0 mg/kg/injection, schedule: Q01DX001 (ip), vehicle: Klucel (hydroxypropylcellulose) (HPC) 110 % of control and 102 % of control | dose: 200.0 mg/kg/injection, schedule: Q01DX001 (ip), vehicle: Klucel (hydroxypropylcellulose) (HPC) 100 % of control and 94 % of control | dose: 400.0 mg/kg/injection, schedule: Q01DX001 (ip), vehicle: Klucel (hydroxypropylcellulose) (HPC) 100 % of control and 104 % of control

Nc1ccc(Cc2nc3ccccc3[nH]2)cc1
inactive: [2] 102 % of control | [3] 96 % of control | [4] 98 % of control

NNCC(F)(F)C(F)(F)C(F)(F)C(F)(F)C(F)(F)C(F)(F)C(F)(F)C(F)F
inactive: dose: 100.0 mg/kg/injection, schedule: Q01DX009 (ip), vehicle: DMSO 91 % of control | dose: 100.0 mg/kg/injection, schedule: Q04DX003 (ip), vehicle: DMSO 89 % of control | dose: 200.0 mg/kg/injection, schedule: Q01DX009 (ip), vehicle: DMSO 92 % of control | dose: 200.0 mg/kg/injection, schedule: Q04DX003 (ip), vehicle: DMSO 88 % of control | dose: 400.0 mg/kg/injection, schedule: Q04DX003 (ip), vehicle: DMSO 94 % of control

COC(=O)C1=C(C(=O)OC)C2C=CC1C2
inactive: [2] 102 % of control | dose: 100.0 mg/kg/injection, schedule: Q01DX009 (ip), vehicle: Klucel (hydroxypropylcellulose) (HPC) 111 % of control | [3] 94 % of control | dose: 200.0 mg/kg/injection, schedule: Q01DX009 (ip), vehicle: Klucel (hydroxypropylcellulose) (HPC) 91 % of control | [4] 91 % of control | dose: 400.0 mg/kg/injection, schedule: Q01DX009 (ip), vehicle: Klucel (hydroxypropylcellulose) (HPC) 97 % of control

C/C(=N\O)c1ccc2ccc3ccccc3c2c1
inactive: dose: 100.0 mg/kg/injection, schedule: Q01DX009 (ip), vehicle: saline sonified 105 % of control | dose: 100.0 mg/kg/injection, schedule: Q01DX009 (ip), vehicle: saline with Tween-80 101 % of control | [5] 103 % of control | dose: 200.0 mg/kg/injection, schedule: Q01DX009 (ip), vehicle: saline sonified 93 % of control | dose: 200.0 mg/kg/injection, schedule: Q01DX009 (ip), vehicle: saline with Tween-80 93 % of control | [6] 103 % of control | dose: 400.0 mg/kg/injection, schedule: Q01DX009 (ip), vehicle: saline sonified 94 % of control | dose: 400.0 mg/kg/injection, schedule: Q01DX009 (ip), vehicle: saline with Tween-80 95 % of control | [7] 115 % of control

CC(CO)(CO)N=Cc1cc(Cl)ccc1O
inactive: dose: 100.0 mg/kg/injection, schedule: Q01DX001 (ip), vehicle: carboxymethylcellulose (CMC) 91 % of control | dose: 200.0 mg/kg/injection, schedule: Q01DX001 (ip), vehicle: carboxymethylcellulose (CMC) 96 % of control | dose: 400.0 mg/kg/injection, schedule: Q01DX001 (ip), vehicle: carboxymethylcellulose (CMC) 109 % of control

CC(C)C(N=Cc1cc(Cl)ccc1O)C(=O)O (stereo not drawn)
inactive: dose: 100.0 mg/kg/injection, schedule: Q01DX001 (ip), vehicle: steriod suspending solution 105 % of control | dose: 200.0 mg/kg/injection, schedule: Q01DX001 (ip), vehicle: steriod suspending solution 94 % of control | dose: 400.0 mg/kg/injection, schedule: Q01DX001 (ip), vehicle: steriod suspending solution 104 % of control

O=C(O)/C(=C\c1ccccc1)Sc1ccccc1
inactive: dose: 75.0 mg/kg/injection, schedule: Q01DX001 (ip), vehicle: acetone 105 % of control | dose: 150.0 mg/kg/injection, schedule: Q01DX001 (ip), vehicle: acetone 98 % of control | dose: 300.0 mg/kg/injection, schedule: Q01DX001 (ip), vehicle: acetone 100 % of control

ClC(Cl)C1OCCOCCO1
inactive: [8] 97 % of control | [9] 100 % of control | [10] 97 % of control

OCC(I)CO
inactive: [2] 106 % of control

CCOC(=O)CNc1cccc(Cl)c1
inactive: [8] 107 % of control | [9] 103 % of control | [10] 96 % of control

O=S1(=O)C(c2ccccc2)C(N2CCCCC2)C1C1CC2c3ccccc3C1c1ccccc12 (stereo not drawn)
inactive: dose: 75.0 mg/kg/injection, schedule: Q01DX001 (ip), vehicle: carboxymethylcellulose (CMC) 91 % of control | dose: 150.0 mg/kg/injection, schedule: Q01DX001 (ip), vehicle: carboxymethylcellulose (CMC) 91 % of control | dose: 300.0 mg/kg/injection, schedule: Q01DX001 (ip), vehicle: carboxymethylcellulose (CMC) 86 % of control

S=C(Nc1ccc(Cl)cc1)Nc1ccc(Cc2ccc(NC(=S)Nc3ccc(Cl)cc3)cc2)cc1
inactive: [8] 113 % of control | [9] 106 % of control | [10] 92 % of control

CC(=O)OC(C)CC1CCCCC12OCCO2 (stereo not drawn)
inactive: [1] 103 % of control | [2] 108 % of control | [3] 100 % of control | [4] 108 % of control

Brc1ccc2c(c1)/C(=C/c1ccccc1)c1ccccc1-2
inactive: dose: 25.0 mg/kg/injection, schedule: Q04DX002 (ip), vehicle: DMSO 92 % of control | dose: 50.0 mg/kg/injection, schedule: Q04DX002 (ip), vehicle: DMSO 95 % of control

Cc1ccc(C(=O)NCc2ccc(CCc3nc(N)nc(N)c3-c3ccc(Cl)c(Cl)c3)cc2)cc1S(=O)(=O)F
inactive: dose: 100.0 mg/kg/injection, schedule: Q01DX001 (ip), vehicle: saline with Tween-80 100 % of control | dose: 200.0 mg/kg/injection, schedule: Q01DX001 (ip), vehicle: saline with Tween-80 110 % of control | dose: 400.0 mg/kg/injection, schedule: Q01DX001 (ip), vehicle: saline with Tween-80 114 % of control

O=C(NN1C(=O)CSC1=S)c1ccc([N+](=O)[O-])s1
inactive: dose: 50.0 mg/kg/injection, schedule: Q01DX005 (ip), vehicle: saline 96 % of control | dose: 100.0 mg/kg/injection, schedule: Q01DX005 (ip), vehicle: saline 102 % of control

NCC(c1ccccc1)c1ccccc1
inactive: dose: 1.25 mg/kg/injection, schedule: Q01DX009 (ip), vehicle: saline 103 % of control | dose: 12.5 mg/kg/injection, schedule: Q04DX003 (ip), vehicle: saline 98 % of control | dose: 25.0 mg/kg/injection, schedule: Q01DX009 (ip), vehicle: saline 98 % of control | dose: 25.0 mg/kg/injection, schedule: Q04DX003 (ip), vehicle: saline 98 % of control | dose: 50.0 mg/kg/injection, schedule: Q01DX009 (ip), vehicle: saline 95 % of control | dose: 50.0 mg/kg/injection, schedule: Q04DX003 (ip), vehicle: saline 102 % of control

CCn1cc(C(=O)O)c(=O)c2ccc(C)nc21
inactive: [5] 97 % of control | [6] 96 % of control | [7] 94 % of control

O=C(O)c1cc2ccccc2cc1O.Oc1cccc2cccnc12.[Cu]
inactive: dose: 0.5 mg/kg/injection, schedule: Q01DX015 (ip), vehicle: carboxymethylcellulose (CMC) 91 % of control | dose: 1.0 mg/kg/injection, schedule: Q01DX015 (ip), vehicle: carboxymethylcellulose (CMC) 91 % of control | dose: 4.0 mg/kg/injection, schedule: Q01DX015 (ip), vehicle: carboxymethylcellulose (CMC) 93 % of control | dose: 8.0 mg/kg/injection, schedule: Q01DX015 (ip), vehicle: carboxymethylcellulose (CMC) 89 % of control and 90 % of control

COP1(=O)C=C(C)CC1 (stereo not drawn)
inactive: [2] 95 % of control | [3] 95 % of control | [4] 95 % of control
